This is an account of results in ChEMBL document CHEMBL1201862, “PubChem BioAssay data set” (2004).

Assay in all cases: NCI tumour cell line growth inhibition, 48 h
The subject of assay [1] is OVCAR-3.
The test system of assay [2] is NCI-H522.
Assay [3] has as its system NCI-H460.
The subject of assay [4] is SN12C.
In assay [5] the test system is 786-0.
Assay [6] deals with BT-549.
The test system of assay [7] is MDA-MB-435.
Assay [8] relates to SK-OV-3.
In assay [9] the test system is HL-60.
For assay [10], the system named is OVCAR-4.
Assay [11] relates to RPMI-8226.
Assay [12] has as its system U-251.
Assay [13] concerns A549.
Assay [14] deals with K562.
The test system of assay [15] is UACC-257.
For assay [16], the system named is CCRF-CEM.
Assay [17] deals with PC-3.
Assay [18] relates to MDA-MB-231.
For assay [19], the system named is NCI-H226.
In assay [20] the test system is EKVX.

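These data come from cells grown in 96-well plates and exposed to compound for 48 hours at five concentrations. Abbreviation: GI50, concentration required for 50% inhibition of growth.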 Active and inactive are the calls of the source. No stated cut-off is given here; in the data, active = GI50 up to about 1.1 µM and inactive = higher.

Regarding `COc1ccc(C(=O)/C=C/c2ccc(O)c(O)c2)c(OC)c1`, the GI50 was 0.242 µM (active) in assay [1]; 0.245 µM (active) in assay [2]; 3.04 µM (inactive) in assay [3]; 1.22 µM (inactive) in [4]; 5.21 µM (inactive) in [5]; 3.26 µM (inactive) in [6]. Besides, the GI50 in [7] was 0.47 µM (active); in assay [8], 5.15 µM (inactive); in assay [9], 0.377 µM (active); in [10], 12.4 µM (inactive); in assay [11] it was 0.7 µM (active); in assay [12], 1.7 µM (inactive). Also, the GI50 in assay [13] is 14 µM (inactive); in [14], 0.442 µM (active); in [15] it was 3.87 µM (inactive); in assay [16], 0.508 µM (active); in assay [17], 4.8 µM (inactive); in assay [18] it was 2.71 µM (inactive). The GI50 was 6.64 µM (inactive) in assay [19] and 11.8 µM (inactive) in [20].
Turning to `O=C1/C(=C/c2ccc(O)cc2)CCc2ccccc21`, the GI50 is 23.3 µM (inactive) in [1]; 3.05 µM (inactive) in assay [2]; 29.3 µM (inactive) in assay [3]; 18.3 µM (inactive) in assay [4]; 16.7 µM (inactive) in [5]; 20 µM (inactive) in assay [6]. Also, the GI50 in assay [7] was 21.5 µM (inactive); in assay [8], > 55.6 µM (inactive); in [9], 6.14 µM (inactive); in assay [10], 18.5 µM (inactive); in assay [11] it was 6.5 µM (inactive); in assay [12], 27.6 µM (inactive). Also, the GI50 was 23.6 µM (inactive) in [13]; 13.6 µM (inactive) in assay [14]; 17.3 µM (inactive) in [15]; 1.7 µM (inactive) in assay [16]; 16.8 µM (inactive) in [17]; 20.5 µM (inactive) in assay [18]. In addition, the figures for the GI50 in assay [19] and in assay [20] were 24.5 µM (inactive) and 23 µM (inactive), respectively.
Turning to `COc1ccc2c[n+](C)c3c4cc(OC)c(OC)cc4ccc3c2c1`, the GI50 in assay [1] is 3.9 µM (inactive); in [2], 2.03 µM (inactive); in [3], 3.91 µM (inactive); in [4] it was 2.02 µM (inactive); in assay [5] it was 2.39 µM (inactive); in assay [6], 2.85 µM (inactive). For the same compound, the GI50 in assay [7] is 13.7 µM (inactive); in assay [8], 2.99 µM (inactive); in assay [9], 8.07 µM (inactive); in assay [10], 8.09 µM (inactive); in [11], 2.96 µM (inactive); in assay [12] it was 1.49 µM (inactive). For the same compound, the GI50 is 0.53 µM (active) in assay [13]; 2.43 µM (inactive) in assay [14]; 20.7 µM (inactive) in assay [15]; 3.37 µM (inactive) in [16]; 0.849 µM (active) in assay [17]; 0.944 µM (active) in [18]. Also, the GI50 is 15.5 µM (inactive) in assay [19] and 13.1 µM (inactive) in assay [20].
Consider `COc1cc(/C=C/C(=O)C2(C(=O)/C=C/c3cc(OC)c(OC)c(OC)c3)CCCCC2)cc(OC)c1OC`, for which the GI50 in assay [1] is 23.3 µM (inactive); in assay [2], 30.1 µM (inactive); in assay [3], 80.7 µM (inactive); in [4], 35.2 µM (inactive); in [5], 43.2 µM (inactive); in [6], 29.6 µM (inactive). Further, the GI50 in assay [7] is 21.5 µM (inactive); in assay [8], 68.9 µM (inactive); in [9] it was 52 µM (inactive); in assay [10] it was 46.6 µM (inactive); in assay [11] it was 18.3 µM (inactive); in assay [12], 30.1 µM (inactive). Besides, the GI50 is > 100 µM (inactive) in [13]; 51.3 µM (inactive) in [14]; 76.9 µM (inactive) in assay [15]; 34.3 µM (inactive) in assay [16]; 27.2 µM (inactive) in assay [17]; 42.9 µM (inactive) in assay [18]. In addition, the GI50 in assay [19] is 32.7 µM (inactive); in [20] it was 27.5 µM (inactive).
On to `Clc1nc2c(C#Cc3ccccc3)ncnc2n1C1CCCCO1` (stereo not given), for which the GI50 is 14.8 µM (inactive) in assay [1]; 7.94 µM (inactive) in assay [2]; 15.7 µM (inactive) in assay [3]; 10.4 µM (inactive) in assay [4]; 11.6 µM (inactive) in assay [5]; 14.8 µM (inactive) in assay [6]. Besides, the GI50 in assay [7] was 7 µM (inactive); in [8], 27.6 µM (inactive); in assay [9], 11.7 µM (inactive); in [10] it was 9.51 µM (inactive); in assay [11] it was 4.12 µM (inactive); in [12], 12.6 µM (inactive). Also, the GI50 is 16.5 µM (inactive) in assay [13]; 30.3 µM (inactive) in assay [14]; 15 µM (inactive) in [15]; 5.15 µM (inactive) in assay [16]; 12.2 µM (inactive) in assay [17]; 16.6 µM (inactive) in assay [18]. In addition, the values for the GI50 in assay [19] and in [20] were 71.3 µM (inactive) and 2.55 µM (inactive), respectively.
Take `C(=N\Nc1ccc(-c2nc3ccccc3[nH]2)cc1)/c1c(-c2ccc(Cc3ccccc3)cc2)[nH]c2ccccc12`: the GI50 in [1] is 9.44 µM (inactive); in [2], 9.08 µM (inactive); in [3] it was 10.8 µM (inactive); in assay [4], 18.6 µM (inactive); in [5], 3.3 µM (inactive); in [6], 4.1 µM (inactive). The GI50 was 3.23 µM (inactive) in assay [7]; 21.6 µM (inactive) in assay [8]; 7.06 µM (inactive) in assay [9]; 14.1 µM (inactive) in [10]; 3.08 µM (inactive) in assay [11]; 6.01 µM (inactive) in [12]. The GI50 in [13] is 6.85 µM (inactive); in assay [14], 4.46 µM (inactive); in assay [15], 13.5 µM (inactive); in [16], 5.06 µM (inactive); in assay [17] it was 4.86 µM (inactive); in [18], 11.5 µM (inactive). Also, the GI50 was > 94.4 µM (inactive) in assay [19] and 20.4 µM (inactive) in [20].
Take `O=C1C2CC(Cl)C(SSC3CC4C(=O)N(SC(Cl)(Cl)C(Cl)Cl)C(=O)C4CC3Cl)CC2C(=O)N1SC(Cl)(Cl)C(Cl)Cl` (stereo not given): the GI50 in assay [1] was 2.05 µM (inactive); in assay [2] it was 0.379 µM (active); in assay [3], 2.39 µM (inactive); in assay [4] it was 1.91 µM (inactive); in assay [5], 1.56 µM (inactive); in [6], 1.7 µM (inactive). For the same compound, the GI50 was 1.65 µM (inactive) in assay [7]; 3.39 µM (inactive) in [8]; 0.543 µM (active) in assay [9]; 2.13 µM (inactive) in [10]; 1.81 µM (inactive) in assay [11]; 1.4 µM (inactive) in assay [12]. For the same compound, the GI50 was 2.86 µM (inactive) in assay [13]; 0.979 µM (active) in [14]; 2.02 µM (inactive) in [15]; 0.249 µM (active) in assay [16]; 1.29 µM (inactive) in assay [17]; 1.54 µM (inactive) in assay [18]. Moreover, the GI50 in assay [19] was 3.67 µM (inactive); in assay [20], 3.01 µM (inactive).
Take `COc1cc(C=C2C(C)=NN(c3cccc(Cl)c3)C23SCC(=O)N3c2nc3ccccc3s2)ccc1O` (stereo not given): the GI50 was 27 µM (inactive) in assay [1]; 17.9 µM (inactive) in [2]; 35.6 µM (inactive) in assay [3]; 30.1 µM (inactive) in [4]; 29.5 µM (inactive) in [5]; 25.9 µM (inactive) in [6]. Besides, the GI50 in [7] is 29.4 µM (inactive); in [8] it was 21.4 µM (inactive); in assay [9] it was 3.72 µM (inactive); in [10], 36.2 µM (inactive); in [11] it was 13.4 µM (inactive); in [12] it was 18.8 µM (inactive). In addition, the GI50 in [13] was 29.6 µM (inactive); in assay [14], 17.3 µM (inactive); in assay [15] it was 32.7 µM (inactive); in assay [16], 4.56 µM (inactive); in assay [17], 21.3 µM (inactive); in [18] it was 20.8 µM (inactive). Also, the GI50 was 35.1 µM (inactive) in [19] and 39.5 µM (inactive) in assay [20].
For the compound `CC(C)OC(=O)c1ccc(CCC2=CC(=O)C(Br)=CC2=O)cc1`, the GI50 in assay [1] was 14.8 µM (inactive); in assay [2], 5.56 µM (inactive); in [3] it was 20.7 µM (inactive); in [4], 16.9 µM (inactive); in [5] it was 16.5 µM (inactive); in assay [6], 5.27 µM (inactive). Further, the GI50 in assay [7] is 16.9 µM (inactive); in assay [8] it was 40.6 µM (inactive); in [9] it was 2.16 µM (inactive); in assay [10] it was 5.75 µM (inactive); in assay [11], 7.26 µM (inactive); in assay [12], 15.6 µM (inactive). Also, the GI50 in assay [13] was 34.7 µM (inactive); in assay [14], 2.84 µM (inactive); in assay [15] it was 13.2 µM (inactive); in assay [16], 0.783 µM (active); in [17] it was 17 µM (inactive); in assay [18], 17.2 µM (inactive). For the same compound, the GI50 is 19.8 µM (inactive) in assay [19] and 16.3 µM (inactive) in assay [20].
For the compound `Cc1cnc2[nH]c(-c3cccc(F)c3)cc(=O)c2c1`, the GI50 in assay [1] was 0.0139 µM (active); in [2], 0.0255 µM (active); in assay [3], 0.0411 µM (active); in assay [4], 0.0687 µM (active); in assay [5], 0.0384 µM (active); in [6], 0.0757 µM (active). Moreover, the GI50 in [7] is < 0.01 µM (active); in [8], 0.0368 µM (active); in assay [9], 0.0186 µM (active); in assay [10], 1.31 µM (inactive); in assay [11] it was 0.0402 µM (active); in [12], 0.0405 µM (active). The GI50 in [13] is 0.0515 µM (active); in assay [14] it was 0.0266 µM (active); in assay [15], > 100 µM (inactive); in [16] it was 0.0353 µM (active); in [17], 0.0239 µM (active); in assay [18], 0.0505 µM (active). Further, the GI50 in assay [19] is 0.0432 µM (active); in assay [20], 0.2 µM (active).
